What was measured:
Assay type in all cases: cell-based
αvβ6 = biological target: T1, αvβ6 (Homo sapiens, UniProt P06756+P18564); experiment: Cell adhesion assay, K562-αvβ6 (LAP-b1); conditions: K562-αvβ6 cells, ligand LAP-b1, 2 mM MgCl2
T1 construct: expressed in transfected cells; host or cells: K562
Protocol: (§1) Reagents and methods utilised are as described [Ludbrook et al, Biochem. J. 2003, 369, 311 and Macdonald et al. ACS Med. Chem. Lett. 2014, 5, 1207-1212 for αvβ8 assay), with the following points of clarification. The following cell lines are used, with ligands in brackets: K562-αvβ3 (LAP-b1), K562-αvβ5 (Vitronectin), K562-αvβ6 (LAP-b1), K562-αvβ8 (LAP-b1), A549-αvβ1 (LAP-b1). The divalent cation used to facilitate adhesion is 2 mM MgCl2. Adhesion is quantified by cell labelling with the fluorescent dye BCECF-AM (Life Technologies), where cell suspensions at 3×10^6 cells/mL are incubated with 0.33 uL/mL of 30 mM BCECF-AM at 37° C. for 10 minutes, then 50 μL/well are dispensed into the 96-well assay plate. At the assay conclusion cells that adhered are lysed using 50 μL/well of 0.5% Triton X-100 in H2O to release fluorescence. Fluorescence intensity is detected using an Envision® plate reader (Perkin Elmer). For active antagonists in the assay, data is fitted to a 4 parameter logistic equation for IC50 determinations.

αvβ1 = biological target: T2, αvβ1 (Homo sapiens, UniProt P05556+P06756); experiment: Cell adhesion assay, A549-αvβ1 (LAP-b1); conditions: A549-αvβ1 cells, ligand LAP-b1, 2 mM MgCl2
T2 construct: host or cells: A549
Protocol: as §1

αvβ3 = biological target: T3, αvβ3 (Homo sapiens, UniProt P05106+P06756); experiment: Cell adhesion assay, K562-αvβ3 (LAP-b1); conditions: K562-αvβ3 cells, ligand LAP-b1, 2 mM MgCl2
T3 construct: expressed in transfected cells; host or cells: K562
Protocol: as §1

αvβ5 = biological target: T4, αvβ5 (Homo sapiens, UniProt P06756+P18084); experiment: Cell adhesion assay, K562-αvβ5 (Vitronectin); conditions: K562-αvβ5 cells, ligand Vitronectin, 2 mM MgCl2
T4 construct: expressed in transfected cells; host or cells: K562
Protocol: as §1

αvβ8 = biological target: T5, αvβ8 (Homo sapiens, UniProt P06756+P26012); experiment: Cell adhesion assay, K562-αvβ8 (LAP-b1); conditions: K562-αvβ8 cells, ligand LAP-b1, 2 mM MgCl2
T5 construct: expressed in transfected cells; host or cells: K562
Protocol: as §1

T5 sequence (P06756 31-889 limits assumed): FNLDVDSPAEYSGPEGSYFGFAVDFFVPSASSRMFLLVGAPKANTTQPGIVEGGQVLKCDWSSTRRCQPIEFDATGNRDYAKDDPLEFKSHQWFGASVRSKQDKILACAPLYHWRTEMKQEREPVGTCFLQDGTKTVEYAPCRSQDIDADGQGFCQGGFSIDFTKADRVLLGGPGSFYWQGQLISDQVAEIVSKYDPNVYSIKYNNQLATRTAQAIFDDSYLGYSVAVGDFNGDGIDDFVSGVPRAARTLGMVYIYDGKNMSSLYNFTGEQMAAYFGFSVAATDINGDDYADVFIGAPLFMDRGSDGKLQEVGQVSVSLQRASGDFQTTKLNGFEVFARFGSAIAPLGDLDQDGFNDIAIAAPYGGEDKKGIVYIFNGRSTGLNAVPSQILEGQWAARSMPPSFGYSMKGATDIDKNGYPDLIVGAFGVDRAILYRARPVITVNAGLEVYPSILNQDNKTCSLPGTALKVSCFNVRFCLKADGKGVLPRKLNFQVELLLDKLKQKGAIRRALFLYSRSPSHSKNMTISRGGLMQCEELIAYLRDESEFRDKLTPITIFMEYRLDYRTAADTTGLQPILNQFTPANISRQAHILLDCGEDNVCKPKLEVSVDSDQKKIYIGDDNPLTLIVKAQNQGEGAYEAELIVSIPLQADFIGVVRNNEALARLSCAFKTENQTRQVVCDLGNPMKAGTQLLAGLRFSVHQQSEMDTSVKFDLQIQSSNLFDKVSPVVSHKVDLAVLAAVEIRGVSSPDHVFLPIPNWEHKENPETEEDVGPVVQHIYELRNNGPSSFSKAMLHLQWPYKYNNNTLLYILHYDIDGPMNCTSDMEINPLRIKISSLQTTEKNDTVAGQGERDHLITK
T5 sequence (P06756 891-1048 partner limits assumed): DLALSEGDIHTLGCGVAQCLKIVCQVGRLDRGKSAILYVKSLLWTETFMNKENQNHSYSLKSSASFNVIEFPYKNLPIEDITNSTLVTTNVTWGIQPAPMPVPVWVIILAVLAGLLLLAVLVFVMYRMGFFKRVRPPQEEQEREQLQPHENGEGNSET
T5 sequence (P26012 43-769): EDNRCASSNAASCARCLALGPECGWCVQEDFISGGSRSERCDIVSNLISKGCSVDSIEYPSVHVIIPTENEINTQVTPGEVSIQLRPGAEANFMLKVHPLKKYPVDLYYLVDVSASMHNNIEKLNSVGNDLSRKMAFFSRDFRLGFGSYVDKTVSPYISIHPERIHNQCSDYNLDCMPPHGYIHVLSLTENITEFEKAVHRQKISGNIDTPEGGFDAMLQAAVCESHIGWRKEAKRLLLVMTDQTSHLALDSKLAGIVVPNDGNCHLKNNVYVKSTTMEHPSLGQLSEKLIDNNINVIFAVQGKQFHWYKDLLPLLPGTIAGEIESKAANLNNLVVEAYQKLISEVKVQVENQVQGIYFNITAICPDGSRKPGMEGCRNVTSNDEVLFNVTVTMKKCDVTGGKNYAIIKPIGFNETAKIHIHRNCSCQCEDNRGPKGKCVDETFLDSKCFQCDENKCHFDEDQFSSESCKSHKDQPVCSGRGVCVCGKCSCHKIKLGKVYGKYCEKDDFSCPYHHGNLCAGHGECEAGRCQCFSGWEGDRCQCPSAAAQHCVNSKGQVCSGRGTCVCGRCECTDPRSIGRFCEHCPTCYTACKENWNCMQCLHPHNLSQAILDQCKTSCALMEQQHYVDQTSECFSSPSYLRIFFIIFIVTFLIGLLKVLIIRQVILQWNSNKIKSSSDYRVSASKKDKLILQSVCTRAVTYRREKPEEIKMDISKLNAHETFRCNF
T4 sequence (P06756 31-889 limits assumed): as the sequence (P06756 31-889 limits assumed) above
T4 sequence (P06756 891-1048 partner limits assumed): as the sequence (P06756 891-1048 partner limits assumed) above
T4 sequence (P18084 24-799): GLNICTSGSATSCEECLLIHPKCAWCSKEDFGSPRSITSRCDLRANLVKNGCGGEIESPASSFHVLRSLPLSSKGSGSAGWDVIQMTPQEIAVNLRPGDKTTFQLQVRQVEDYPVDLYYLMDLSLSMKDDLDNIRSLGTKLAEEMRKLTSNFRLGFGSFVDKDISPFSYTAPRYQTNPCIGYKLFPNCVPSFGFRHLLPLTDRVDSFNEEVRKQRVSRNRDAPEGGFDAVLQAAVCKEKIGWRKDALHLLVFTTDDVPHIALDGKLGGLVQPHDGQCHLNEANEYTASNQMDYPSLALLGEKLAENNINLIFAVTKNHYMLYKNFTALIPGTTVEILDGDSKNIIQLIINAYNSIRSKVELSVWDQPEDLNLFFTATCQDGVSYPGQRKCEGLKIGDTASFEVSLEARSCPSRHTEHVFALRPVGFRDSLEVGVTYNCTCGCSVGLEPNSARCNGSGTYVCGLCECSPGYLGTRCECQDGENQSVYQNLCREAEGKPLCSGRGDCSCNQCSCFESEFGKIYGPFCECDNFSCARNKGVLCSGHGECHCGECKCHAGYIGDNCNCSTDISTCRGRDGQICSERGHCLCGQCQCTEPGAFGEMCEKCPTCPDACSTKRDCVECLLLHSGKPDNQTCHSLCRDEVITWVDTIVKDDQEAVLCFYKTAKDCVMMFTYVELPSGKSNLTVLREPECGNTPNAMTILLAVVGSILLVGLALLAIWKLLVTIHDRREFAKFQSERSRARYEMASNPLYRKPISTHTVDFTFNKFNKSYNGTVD
T2 sequence (P06756 31-889 limits assumed): as the sequence (P06756 31-889 limits assumed) above
T2 sequence (P06756 891-1048 partner limits assumed): as the sequence (P06756 891-1048 partner limits assumed) above
T2 sequence (P05556 21-798): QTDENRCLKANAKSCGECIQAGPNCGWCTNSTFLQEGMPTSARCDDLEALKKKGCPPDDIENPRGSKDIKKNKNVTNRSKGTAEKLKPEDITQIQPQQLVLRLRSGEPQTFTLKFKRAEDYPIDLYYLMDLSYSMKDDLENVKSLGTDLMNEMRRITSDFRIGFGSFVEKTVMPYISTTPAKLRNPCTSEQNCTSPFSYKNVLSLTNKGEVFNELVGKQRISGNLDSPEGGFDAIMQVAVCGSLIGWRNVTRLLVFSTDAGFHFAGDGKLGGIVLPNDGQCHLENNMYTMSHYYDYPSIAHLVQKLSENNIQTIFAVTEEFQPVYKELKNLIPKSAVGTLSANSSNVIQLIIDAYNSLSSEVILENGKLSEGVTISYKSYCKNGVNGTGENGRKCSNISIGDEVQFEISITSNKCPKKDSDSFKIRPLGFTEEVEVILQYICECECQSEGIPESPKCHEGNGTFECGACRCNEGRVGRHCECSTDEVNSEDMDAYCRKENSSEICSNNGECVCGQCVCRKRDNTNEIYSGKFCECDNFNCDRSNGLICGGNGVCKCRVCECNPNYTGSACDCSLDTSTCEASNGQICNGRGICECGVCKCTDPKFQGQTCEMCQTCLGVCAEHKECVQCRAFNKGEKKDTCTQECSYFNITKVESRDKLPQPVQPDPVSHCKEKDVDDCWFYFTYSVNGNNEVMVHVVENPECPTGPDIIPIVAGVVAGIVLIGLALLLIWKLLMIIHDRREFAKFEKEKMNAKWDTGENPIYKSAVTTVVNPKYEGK
T3 sequence (P06756 31-889 limits assumed): as the sequence (P06756 31-889 limits assumed) above
T3 sequence (P06756 891-1048 partner limits assumed): as the sequence (P06756 891-1048 partner limits assumed) above
T3 sequence (P05106 27-788): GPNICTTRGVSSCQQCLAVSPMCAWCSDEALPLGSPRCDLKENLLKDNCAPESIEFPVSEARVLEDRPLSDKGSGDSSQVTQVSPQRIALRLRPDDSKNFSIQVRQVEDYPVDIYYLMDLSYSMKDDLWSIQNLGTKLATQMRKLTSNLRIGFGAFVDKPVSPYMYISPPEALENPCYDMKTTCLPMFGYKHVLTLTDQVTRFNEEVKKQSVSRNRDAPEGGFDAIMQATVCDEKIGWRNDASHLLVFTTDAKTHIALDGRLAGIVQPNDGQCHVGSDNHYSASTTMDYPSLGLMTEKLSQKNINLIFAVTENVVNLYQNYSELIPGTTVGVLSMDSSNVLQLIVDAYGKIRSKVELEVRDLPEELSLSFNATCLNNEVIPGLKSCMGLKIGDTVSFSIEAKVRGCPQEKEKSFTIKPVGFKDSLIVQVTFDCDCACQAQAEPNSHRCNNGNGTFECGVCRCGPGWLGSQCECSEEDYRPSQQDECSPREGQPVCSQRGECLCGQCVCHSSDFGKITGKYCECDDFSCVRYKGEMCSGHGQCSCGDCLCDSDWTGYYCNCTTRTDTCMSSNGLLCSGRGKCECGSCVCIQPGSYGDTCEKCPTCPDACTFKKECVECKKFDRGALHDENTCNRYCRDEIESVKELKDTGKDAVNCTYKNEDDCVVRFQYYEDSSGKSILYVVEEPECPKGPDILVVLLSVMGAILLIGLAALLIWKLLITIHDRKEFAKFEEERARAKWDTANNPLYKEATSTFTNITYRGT

Row | Compound | αvβ6 pIC50 (mean affinity, cell Adhesion Assay) (αvβ6) | αvβ1 pIC50 (mean affinity, cell Adhesion Assay) (αvβ1) | αvβ3 pIC50 (mean affinity, cell Adhesion Assay) (αvβ3) | αvβ5 pIC50 (mean affinity, cell Adhesion Assay) (αvβ5) | αvβ8 pIC50 (mean affinity, cell Adhesion Assay) (αvβ8)
1 | O=C(O)CC(O)(CC(=O)O)C(=O)O.O=C(O)C[C@H](CN1CC[C@@](F)(CCc2ccc3c(n2)NCCC3)C1)c1cccc(O[C@H]2CCOC2)c1 [Example 18, (S)-4-((S)-3-Fluoro-3-(2-(5,6,7,8-tetrahydro-1,8-naphthyridin-2-yl)ethyl)pyrrolidin-1-yl)-3-(3-(((S)-tetrahydrofuran-3-yl)oxy)phenyl)butanoic acid (1:1) citrate salt] | 8.3 | 6.4 | 7.3 | 7.5 | 7.7
2 | O=C(O)/C=C\C(=O)O.O=C(O)C[C@H](CN1CC[C@@](F)(CCc2ccc3c(n2)NCCC3)C1)c1cccc(O[C@H]2CCOC2)c1 [Example 19, (S)-4-((S)-3-Fluoro-3-(2-(5,6,7,8-tetrahydro-1,8-naphthyridin-2-yl)ethyl)pyrrolidin-1-yl)-3-(3-(((S)-tetrahydrofuran-3-yl)oxy)phenyl)butanoic acid (1:1) maleate salt] | 8.2 | 6.6 | 7.3 | 7.5 | 7.4

Source: patent US20210206758A1, “NAPHTHYRIDINES AS INTEGRIN ANTAGONISTS” (GlaxoSmithKline Intellectual Property Development Limited, priority 2016, published 2021)
